{
  "source": "patent US6710049B2",
  "about": "“Azole compounds as anti-fungal agents” (Ranbaxy Laboratories Limited, priority 2000, dated 2004)",
  "key": {"[1]": {"conditions": "serum drug concentration after several days of treatment 25 to 100 times above the MIC for C. neoformans; cited from earlier work"}, "All Candida isolates": {"tested_on": "All Candida isolates", "experiment": "Comparative in vitro MIC, isolate panel", "assay_type": "cell-based", "from_the_text": "(§1) The in-vitro evaluation of the antifungal activity of the compounds can be performed by determining the minimum inhibitory concentration (MIC) as shown in Table 1 which is the concentration of the test compound in Rosewell Park Memorial Institute (RPMI) 1640 liquid medium buffered with 3-(Morpholino)propanesulphonic acid (MOPS) to pH 7, at which there is significant inhibition of the particular fungi. In practice the National Committee for Clinical Laboratory Standard (NCCLS) M27A document for Candida and Cryptococcus and M38P for Aspergillus was used to determine the MIC against yeast and filamentous fungi with suitable modifications for dermatophytes to other filamentous fungi. Three quality control strains were included each time the MIC were determined and readings recorded only when the Quality Control results fell into the acceptable range. After MIC results had been recorded, 100 μl from each of the well showing no growth was spread over Sabouraud Dextrose Agar (SDA) to determine the minimum fungicidal concentration (MFC) as shown in Table 2.\n(§2) A comparative in vitro and in vivo biologically activity data of the compound of our invention, 2-{[1R,2R]-2-(2,4-Difluorophenyl)-2-hydroxy-1-methyl-3-(1H-1,2,4-triazole-1-yl)propyl}-4-[(2′,2′,3′,3′-tetrafluoropropoxyphenyl)-3-(2H,4H)-1,2,4-thiotriazolone (Compound No. 3) with 2-[(1R,2R)-2-(2,4-difluorophenyl)-2-hydroxy-1-methyl-3-(1H-1,2,4-triazol-1-yl)propyl]-4-(2′,2′,3′,3′-tetraflouropropoxyphenyl)-3(2H,4H)-1,2,4-triazolone (TAK 187) and standard antifungal pharmaceuticals is given below: […]"}, "All Filamentous isolates": {"tested_on": "All Filamentous isolates", "experiment": "Comparative in vitro MIC, isolate panel", "assay_type": "cell-based", "from_the_text": "as §1, §2"}, "All fungal pathogens": {"tested_on": "All fungal pathogens", "experiment": "Comparative in vitro MIC, isolate panel", "assay_type": "cell-based", "from_the_text": "as §1, §2"}, "[2]": {"tested_on": "Aspergillus fumigatus isolates", "experiment": "Comparative in vitro MIC, isolate panel", "assay_type": "cell-based", "from_the_text": "as §1, §2"}, "Fusarium spp. isolates": {"tested_on": "Fusarium spp. isolates", "experiment": "Comparative in vitro MIC, isolate panel", "assay_type": "cell-based", "from_the_text": "as §1, §2"}, "[3]": {"tested_on": "Penicillium spp. isolates", "experiment": "Comparative in vitro MIC, isolate panel", "assay_type": "cell-based", "from_the_text": "as §1, §2"}, "Rhizoupus spp. isolates": {"tested_on": "Rhizoupus spp. isolates", "experiment": "Comparative in vitro MIC, isolate panel", "assay_type": "cell-based", "from_the_text": "as §1, §2"}, "T. mentagrophyte": {"tested_on": "T. mentagrophyte", "experiment": "Activity against dermatophytes", "assay_type": "cell-based", "parameters": "unit not given here", "from_the_text": "as §1, §2"}, "T. rubrum": {"tested_on": "T. rubrum", "experiment": "Activity against dermatophytes", "assay_type": "cell-based", "parameters": "unit not given here", "from_the_text": "as §1, §2"}, "Aspergillus fumigatous": {"tested_on": "Aspergillus fumigatous", "experiment": "In vivo anti-fungal activity, ED50 in systemically infected mice", "parameters": "species or system Swiss albino mice", "conditions": "mice infected i.v. with Aspergillus fumigatous, dosing for five days", "procedure": "The in-vivo evaluation of the compound can be carried out at a series of dose levels by oral or I. V. injection to mice which are inoculated I.V. with the minimum lethal dose of Candida albicans, Cryptococcus neoformans or Aspergillus fumigatus by the tail vein. Activity is based on the survival of a treated group of mice after the death of an untreated group of mice. For Aspergillus and Cryptococcus infections, target organs were cultured after treatment to document the number of mice cured of the infection for further assessment of activity.\nMethod: Briefly, Swiss albino mice weighing 20±2 G were injected intravenously (tail vein) with sufficient fungal cells to kill 100% of the untreated animals for Aspergillus fumigatous strain used. In all cases each group comprised of six mice. Five does levels, utilizing doubling dilution range, were employed per determination ranging from 25 to 1.56 mg/kg BW. Dosing was carried out for five days starting after 30 minutes of infection. […] Treated animals were monitored twice daily for 14 days post infection at which time the experiment was terminated and ED50 was calculated."}, "[4]": {"tested_on": "filamentous species of fungi", "experiment": "Activity against filamentous fungi (statement in words)", "assay_type": "cell-based", "from_the_text": "as §1"}},
  "data": [
    {"smiles": "CC[C@@H]([C@H](C)O)n1ncn(-c2ccc(N3CCN(c4ccc(OC[C@@H]5CO[C@@](Cn6cncn6)(c6ccc(F)cc6F)C5)cc4)CC3)cc2)c1=O", "note": "[SCH 56592]", "values": [
      {"measurement": "detectability in CSF", "setting": "[1]", "value": "undetectable"}
    ]},
    {"smiles": "C[C@@H](n1ncn(-c2ccc(OCC(F)(F)C(F)F)cc2)c1=S)[C@](O)(Cn1cncn1)c1ccc(F)cc1F", "note": "[Compound No. 3]", "values": [
      {"measurement": "MIC50", "setting": "All Candida isolates", "value": 0.5, "unit": "µg/mL"},
      {"measurement": "MIC90", "setting": "All Candida isolates", "value": 1, "unit": "µg/mL"},
      {"measurement": "MIC G.M.", "setting": "All Candida isolates", "value": 0.1, "unit": "µg/mL"},
      {"measurement": "MIC50", "setting": "All Filamentous isolates", "value": 0.25, "unit": "µg/mL"},
      {"measurement": "MIC90", "setting": "All Filamentous isolates", "value": 8, "unit": "µg/mL"},
      {"measurement": "MIC G.M.", "setting": "All Filamentous isolates", "value": 0.328, "unit": "µg/mL"},
      {"measurement": "MIC50", "setting": "All fungal pathogens", "value": 0.25, "unit": "µg/mL"},
      {"measurement": "MIC90", "setting": "All fungal pathogens", "value": 2, "unit": "µg/mL"},
      {"measurement": "MIC G.M.", "setting": "All fungal pathogens", "value": 0.285, "unit": "µg/mL"},
      {"measurement": "MIC50", "setting": "[2]", "value": 0.125, "unit": "µg/mL"},
      {"measurement": "MIC90", "setting": "[2]", "value": 0.25, "unit": "µg/mL"},
      {"measurement": "MIC G.M.", "setting": "[2]", "value": 0.112, "unit": "µg/mL"},
      {"measurement": "MIC50", "setting": "Fusarium spp. isolates", "value": 8, "unit": "µg/mL"},
      {"measurement": "MIC90", "setting": "Fusarium spp. isolates", "value": 8, "unit": "µg/mL"},
      {"measurement": "MIC G.M.", "setting": "Fusarium spp. isolates", "value": 8, "unit": "µg/mL"},
      {"measurement": "MIC50", "setting": "[3]", "value": 2, "unit": "µg/mL"},
      {"measurement": "MIC90", "setting": "[3]", "value": 8, "unit": "µg/mL"},
      {"measurement": "MIC G.M.", "setting": "[3]", "value": 1.516, "unit": "µg/mL"},
      {"measurement": "MIC50", "setting": "Rhizoupus spp. isolates", "value": 0.125, "unit": "µg/mL"},
      {"measurement": "MIC90", "setting": "Rhizoupus spp. isolates", "value": 0.125, "unit": "µg/mL"},
      {"measurement": "MIC G.M.", "setting": "Rhizoupus spp. isolates", "value": 0.125, "unit": "µg/mL"},
      {"measurement": "Activity against dermatophytes", "setting": "T. mentagrophyte", "value": 0.016},
      {"measurement": "Activity against dermatophytes", "setting": "T. rubrum", "value": 0.004},
      {"measurement": "ED50", "setting": "Aspergillus fumigatous; Day 7 post infection", "value": 2.33, "unit": "mg/kg body weight"},
      {"measurement": "ED50", "setting": "Aspergillus fumigatous; Day 14 post infection", "value": 6.25, "unit": "mg/kg body weight"},
      {"measurement": "activity against clinically important filamentous species of fungi", "setting": "[4]", "value": "unexpectedly potent activity"},
      {"measurement": "fungicidal character", "setting": "[4]; b38: against some filamentous fungi", "value": "fungicidal"}
    ]},
    {"smiles": "CN(C/C=C/C#CC(C)(C)C)Cc1cccc2ccccc12", "note": "[Terbina]", "values": [
      {"measurement": "Activity against dermatophytes", "setting": "T. mentagrophyte", "value": 0.002},
      {"measurement": "Activity against dermatophytes", "setting": "T. rubrum", "value": 0.016}
    ]}
  ]
}
